Test system: PSMA+LNCaP cells
Test: Flow cytometry ADCP assay with mmAb on LNCaP cells
Format: cell-based, human
Description: ADCP flow cytometry experiments were run on a BD LSRII Flow Cytometer. The human IgG isotype control used was purchased from Jackson ImmunoResearch (009-000-003). The human IgG1 monoclonal anti-DNP antibody (mAb) was purchased from acrobiosystems (DNP-M2). PSMA expression was confirmed with an anti-PSMA antibody Alexa 647 conjugate (Novus Biologicals, Catalog #FAB4234R). For PSMA competition controls, PMPA was purchased from Sigma (SML1612). Hek-293T (PSMA+/−) cell lines were generously given by Dr. Cyril Barinka (Institute of Biotechnology CAS, Czech Republic). U937 cells were generously given by Dr. John Valliant (McMaster University, Canada). LNCaP cells were generously given by Dr. Karen Mossman (McMaster University, Canada). IFN-γ was purchased from Fischer Scientific (PHC4031). Ultra low IgG FBS was purchased from Fischer Scientific (A3381901). RPMI-1640 was purchased as a powder from Fischer Scientific (31800089) and resuspended. DMEM was purchased as a powder from Fischer Scientific (12800082) and resuspended. […]
For preparation of effector monocytes, 24 hours prior to inducing phagocytosis U937 monocytes were seeded at 500,000 cells/mL and activated with IFN-γ ([…]). After incubation, these cells were then counted and washed twice with serum free assay media (neat RPMI). […] These cells were then counted and washed twice with serum free assay media (neat RPMI). […]

For `O=C(O)CC[C@H](NC(=O)N[C@@H](CCCCNC(=O)NCCOCCOCCOCCOCCOCCOCCOCCOC(=O)n1cnc(CCNC(=O)CNc2ccc([N+](=O)[O-])cc2[N+](=O)[O-])c1)C(=O)O)C(=O)O` [CIR 3], the “ADCP on LNCaP target cells” value was “significant functional advantage compared to non-covalent recruitment across all antibody concentrations tested”.

Source: patent US11827624B2, “Covalent immune recruiter compounds for immune cell recognition and associated uses” (McMaster University, priority 2020, dated 2023)
